Results from ChEMBL document CHEMBL3045490, “N-Thiophenylethyl-2,2-dichloro-1-cyclopropanecarboxamides: modification of the amide part of carpropamid and examination of fungicidal activity” (2009).

Key:
Type in all cases: functional
[1] = test system: Pseudoperonospora cubensis; assay: Antifungal activity against Pseudoperonospora cubensis in cucumber assessed as lesion area of the disease at 500 ug/ml after 7 days
[2] = test system: Botrytis cinerea; assay: Antifungal activity against Botryotinia fuckeliana in cucumber cotyledon assessed as lesion area of the disease at 500 ug/ml after 4 days
[3] = test system: Blumeria graminis; assay: Antifungal activity against Blumeria graminis in wheat plant assessed as lesion area of the disease at 500 ug/ml after 10 days
[4] = test system: Puccinia recondita; assay: Antifungal activity against Puccinia recondita in wheat plant assessed as lesion area of the disease at 500 ug/ml after 10 days

Compound: CCC1(C(=O)NCCc2ccc(Br)cc2)C(C)C1(Cl)Cl (stereo unspecified)
- Activity [1]: >=80%
- Activity [2]: >=80%
- Activity [3]: >=80%
- Activity [4]: >=80%

Compound: CCC1(C(=O)NCCc2ccc(Cl)s2)C(C)C1(Cl)Cl (stereo unspecified)
- Activity [1]: >=80%
- Activity [2]: >=80%
- Activity [3]: >=80%
- Activity [4]: 1.5%

Compound: CCC1(C(=O)NCCc2csc(Cl)c2)C(C)C1(Cl)Cl (stereo unspecified)
- Activity [1]: 0.5%
- Activity [2]: >=80%
- Activity [3]: >=80%
- Activity [4]: >=80%

Compound: CCC1(C(=O)NC(C)C2CCCC2)C(C)C1(Cl)Cl (stereo unspecified)
- Activity [1]: 0%
- Activity [2]: 3.5%
- Activity [3]: >=80%
- Activity [4]: >=80%

Compound: CCC1(C(=O)NCCc2cc(Br)cs2)C(C)C1(Cl)Cl (stereo unspecified)
- Activity [1]: 0%
- Activity [2]: <40%
- Activity [3]: >=80%
- Activity [4]: >=80%

Compound: CCC1(C(=O)NCCc2ccc(Cl)cc2)C(C)C1(Cl)Cl (stereo unspecified)
- Activity [1]: 3.5%
- Activity [2]: >=80%
- Activity [3]: >=80%
- Activity [4]: >=80%

Compound: CCC1(C(=O)NCCc2ccc(C(F)(F)F)cc2)C(C)C1(Cl)Cl (stereo unspecified)
- Activity [1]: >=80%
- Activity [2]: >=80%
- Activity [3]: 0.5%
- Activity [4]: >=80%

Compound: CCC1(C(=O)NCCc2ccsc2)C(C)C1(Cl)Cl (stereo unspecified)
- Activity [1]: >=80%
- Activity [2]: >=80%
- Activity [3]: >=80%
- Activity [4]: <40%

Compound: CCC1(C(=O)NCCc2cc(Cl)cs2)C(C)C1(Cl)Cl (stereo unspecified)
- Activity [1]: >=80%
- Activity [2]: >=80%
- Activity [3]: >=80%
- Activity [4]: <40%

Compound: CC1(C(=O)NCCc2csc(Cl)c2)CC1(Cl)Cl (stereo unspecified)
- Activity [1]: 0.5%
- Activity [2]: >=80%
- Activity [3]: >=80%
- Activity [4]: 0.5%

Compound: CCC1(C(=O)OCCc2csc(Cl)c2)C(C)C1(Cl)Cl (stereo unspecified)
- Activity [1]: <20%
- Activity [2]: 2.5%
- Activity [3]: >=80%
- Activity [4]: >=80%

Compound: CCC1(C(=O)Nc2ccc(Cl)cc2)C(C)C1(Cl)Cl (stereo unspecified)
- Activity [1]: >=80%
- Activity [2]: >=80%
- Activity [3]: >=80%
- Activity [4]: >=80%

Compound: CC(C)(C)CC(=O)NCCc1csc(Cl)c1
- Activity [1]: >=80%
- Activity [2]: >=80%
- Activity [3]: 1.5%
- Activity [4]: >=80%

Compound: CC1(C)C(Cl)(Cl)C1(C)C(=O)NCCc1csc(Cl)c1 (stereo unspecified)
- Activity [1]: >=80%
- Activity [2]: >=80%
- Activity [3]: <20%
- Activity [4]: 0.5%

Compound: CC(NC(=O)C1(C(C)C)CC1(Cl)Cl)c1ccc(Cl)cc1 (stereo unspecified)
- Activity [1]: >=80%
- Activity [2]: >=80%
- Activity [3]: >=80%
- Activity [4]: <20%

Compound: CCC1(C(=O)NCCc2ccc(Cl)cc2Cl)C(C)C1(Cl)Cl (stereo unspecified)
- Activity [1]: >=80%
- Activity [2]: >=80%
- Activity [3]: >=80%
- Activity [4]: >=80%

Compound: CCC(C)NC(=O)C1(CC)C(C)C1(Cl)Cl (stereo unspecified)
- Activity [1]: >=80%
- Activity [2]: <20%
- Activity [3]: >=80%
- Activity [4]: >=80%

Compound: CCC1(C(=O)NC(C)C2CC3C=CC2C3)C(C)C1(Cl)Cl (stereo unspecified)
- Activity [1]: >=80%
- Activity [2]: <40%
- Activity [3]: >=80%
- Activity [4]: >=80%

Compound: CCC1(C(=O)NC(C)C2CCC2)C(C)C1(Cl)Cl (stereo unspecified)
- Activity [1]: >=80%
- Activity [2]: >=80%
- Activity [3]: >=80%
- Activity [4]: >=80%

Compound: CC(C)(C)C(Cl)C(=O)NCCc1csc(Cl)c1 (stereo unspecified)
- Activity [1]: >=80%
- Activity [2]: >=80%
- Activity [3]: >=80%
- Activity [4]: >=80%

Compound: CCC1(C(=O)NC(C)Cc2ccc(Cl)cc2)C(C)C1(Cl)Cl (stereo unspecified)
- Activity [1]: >=80%
- Activity [2]: >=80%
- Activity [3]: >=80%
- Activity [4]: >=80%

Compound: CCC1(C(=O)NCCc2ccc(Cl)c(Cl)c2)C(C)C1(Cl)Cl (stereo unspecified)
- Activity [1]: 0%
- Activity [2]: >=80%
- Activity [3]: >=80%
- Activity [4]: 3.5%

Compound: CC(NC(=O)C1(c2ccccc2)CC1(Cl)Cl)c1ccc(Cl)cc1 (stereo unspecified)
- Activity [1]: >=80%
- Activity [2]: >=80%
- Activity [3]: >=80%
- Activity [4]: >=80%

Compound: CC(NC(=O)C1(C2CCCC2)CC1(Cl)Cl)c1ccc(Cl)cc1 (stereo unspecified)
- Activity [1]: >=80%
- Activity [2]: >=80%
- Activity [3]: >=80%
- Activity [4]: >=80%

Compound: CCC1(C(=O)NCc2ccc(Cl)cc2)C(C)C1(Cl)Cl (stereo unspecified)
- Activity [1]: <20%
- Activity [2]: >=80%
- Activity [3]: >=80%
- Activity [4]: >=80%

Compound: CCC1(C(=O)NC(C)C)C(C)C1(Cl)Cl (stereo unspecified)
- Activity [1]: 0%
- Activity [2]: 3.5%
- Activity [3]: >=80%
- Activity [4]: >=80%

Compound: CCC1(C(=O)NCCCc2ccc(Cl)cc2)C(C)C1(Cl)Cl (stereo unspecified)
- Activity [1]: 0%
- Activity [2]: >=80%
- Activity [3]: >=80%
- Activity [4]: >=80%

Compound: CCC1(C(=O)NC(C)c2csc(Cl)c2)C(C)C1(Cl)Cl (stereo unspecified)
- Activity [1]: <20%
- Activity [2]: >=80%
- Activity [3]: >=80%
- Activity [4]: >=80%

Compound: CC1(C)C(C(=O)NCCc2csc(Cl)c2)C1(Cl)Cl (stereo unspecified)
- Activity [1]: 1.5%
- Activity [2]: >=80%
- Activity [3]: >=80%
- Activity [4]: 1.5%

Compound: CC(C)(C)C(C#N)C(=O)NCCc1csc(Cl)c1 (stereo unspecified)
- Activity [1]: >=80%
- Activity [2]: >=80%
- Activity [3]: >=80%
- Activity [4]: 1.5%

Compound: CCC1(C(=O)NCCc2cc(Cl)sc2Cl)C(C)C1(Cl)Cl (stereo unspecified)
- Activity [1]: >=80%
- Activity [2]: >=80%
- Activity [3]: >=80%
- Activity [4]: >=80%

Compound: CCC1(C(=O)NC(C)CC(F)(F)F)C(C)C1(Cl)Cl (stereo unspecified)
- Activity [1]: >=80%
- Activity [2]: >=80%
- Activity [3]: >=80%
- Activity [4]: >=80%

Compound: CCC1(C(=O)NCC(C)c2ccc(Cl)cc2)C(C)C1(Cl)Cl (stereo unspecified)
- Activity [1]: <20%
- Activity [2]: >=80%
- Activity [3]: >=80%
- Activity [4]: >=80%

Compound: CCC1(C(=O)NCCc2ccc(C)cc2)C(C)C1(Cl)Cl (stereo unspecified)
- Activity [1]: >=80%
- Activity [2]: >=80%
- Activity [3]: 2.5%
- Activity [4]: >=80%

Compound: CCC1(C(=O)NCCc2cccc(Cl)c2)C(C)C1(Cl)Cl (stereo unspecified)
- Activity [1]: 0%
- Activity [2]: >=80%
- Activity [3]: 2.5%
- Activity [4]: <40%

Compound: maneb
- Activity [1]: 0%
- Activity [4]: 0%

Compound: CC(C)(C)C(Br)C(=O)NCCc1csc(Cl)c1 (stereo unspecified)
- Activity [1]: >=80%
- Activity [2]: >=80%
- Activity [3]: >=80%
- Activity [4]: <20%

Compound: CCC1(C(=O)NCCc2ccccc2Cl)C(C)C1(Cl)Cl (stereo unspecified)
- Activity [1]: >=80%
- Activity [2]: >=80%
- Activity [3]: >=80%
- Activity [4]: >=80%

Compound: CCC1(C(=O)NCCc2ccc(F)cc2F)C(C)C1(Cl)Cl (stereo unspecified)
- Activity [1]: 0%
- Activity [2]: <20%
- Activity [3]: 2.5%
- Activity [4]: >=80%

Compound: CCC1(C(=O)NCCc2ccccc2)C(C)C1(Cl)Cl (stereo unspecified)
- Activity [1]: 0%
- Activity [2]: >=80%
- Activity [3]: 0.5%
- Activity [4]: 1.5%

Compound: CCC1(C(=O)NC(C)c2ccc(Cl)s2)C(C)C1(Cl)Cl (stereo unspecified)
- Activity [1]: >=80%
- Activity [2]: >=80%
- Activity [3]: >=80%
- Activity [4]: 1.5%

Compound: CC[C@@]1(C(=O)N[C@H](C)c2ccc(Cl)cc2)[C@@H](C)C1(Cl)Cl [CARPROPAMIDE]
- Activity [1]: 0.5%
- Activity [2]: >=80%
- Activity [3]: >=80%
- Activity [4]: >=80%

Compound: CCC1(C(=O)NC(C)C2CCCCCC2)C(C)C1(Cl)Cl (stereo unspecified)
- Activity [1]: 0%
- Activity [2]: >=80%
- Activity [3]: >=80%
- Activity [4]: >=80%

Compound: CCC1(C(=O)NC(C)C2CCCCC2)C(C)C1(Cl)Cl (stereo unspecified)
- Activity [1]: >=80%
- Activity [2]: >=80%
- Activity [3]: >=80%
- Activity [4]: >=80%

Compound: CCCC1(C(=O)NCCc2csc(Cl)c2)CC1(Cl)Cl (stereo unspecified)
- Activity [1]: >=80%
- Activity [2]: 0.5%
- Activity [3]: >=80%
- Activity [4]: >=80%

Compound: CC(Cc1ccc(C(C)(C)C)cc1)CN1CCCCC1 (stereo unspecified) [FENPROPIDIN]
- Activity [3]: 0%

Compound: CCC1(C(=O)NC(C)C2CC2(Cl)Cl)C(C)C1(Cl)Cl (stereo unspecified)
- Activity [1]: >=80%
- Activity [2]: >=80%
- Activity [3]: >=80%
- Activity [4]: >=80%

Compound: CCC1(C(=O)NCCc2cc(Cl)c(Cl)s2)C(C)C1(Cl)Cl (stereo unspecified)
- Activity [1]: >=80%
- Activity [2]: >=80%
- Activity [3]: >=80%
- Activity [4]: >=80%

Compound: N#Cc1c[nH]cc1-c1cccc2c1OC(F)(F)O2 [FLUDIOXONIL]
- Activity [2]: 0%

Compound: CCC1(C(=O)NCCc2ccc(F)cc2)C(C)C1(Cl)Cl (stereo unspecified)
- Activity [1]: >=80%
- Activity [2]: >=80%
- Activity [3]: <20%
- Activity [4]: <40%

Compound: CCC1(C(=O)NCCc2csc(Cl)n2)C(C)C1(Cl)Cl (stereo unspecified)
- Activity [1]: 0%
- Activity [2]: >=80%
- Activity [3]: >=80%
- Activity [4]: 0.5%
